Laboratory results from ChEMBL document CHEMBL5512632, “Unlocking the potential of 1,4-naphthoquinones: A comprehensive review of their anticancer properties” (Eur J Med Chem, 2024).
Converted amounts (≈) assume the structure as drawn.

Experiments:
HCC1806 = experiment: Antiproliferative activity against human HCC1806 cells assessed as inhibition of cell growth incubated upto 120 hrs by MTS assay; assay type: functional, cell-based; details: HCC1806, 120 h
Hs-578T = experiment: Antiproliferative activity against human Hs-578T cells assessed as inhibition of cell growth incubated upto 120 hrs by MTS assay; assay type: functional, cell-based
MDA-MB-231 = experiment: Antiproliferative activity against human MDA-MB-231 cells assessed as inhibition of cell growth incubated upto 120 hrs by MTS assay; assay type: functional, cell-based; details: MDA-MB-231, 120 h
MCF7 [1] = experiment: Antiproliferative activity against human MCF7 cells assessed as inhibition of cell growth incubated upto 120 hrs by MTS assay; assay type: functional, cell-based; details: MCF7, 120 h
HT-29 = experiment: Antiproliferative activity against human HT-29 cells assessed as inhibition of cell growth incubated for 48 hrs by MTT reagent based microplate reader assay; assay type: functional; details: HT-29, 48 h
PC-3 = experiment: Antiproliferative activity against human PC-3 cells assessed as inhibition of cell growth incubated for 48 hrs by MTT reagent based microplate reader assay; assay type: functional; details: PC-3, 48 h
HeLa [2] = experiment: Antiproliferative activity against human HeLa cells assessed as inhibition of cell growth incubated for 48 hrs by MTT reagent based microplate reader assay; assay type: functional
A549 [3] = experiment: Antiproliferative activity against human A549 cells assessed as inhibition of cell growth incubated for 48 hrs by MTT reagent based microplate reader assay; assay type: functional; details: A549, 48 h
HCT-116 = experiment: Antiproliferative activity against human HCT-116 cells assessed as inhibition of cell growth incubated for 48 hrs by MTT reagent based microplate reader assay; assay type: functional; details: HCT-116, 48 h
PANC-1 = experiment: Antiproliferative activity against human PANC-1 cells assessed as inhibition of cell growth incubated for 48 hrs by MTT reagent based microplate reader assay; assay type: functional; details: PANC-1, 48 h
DU-145 [4] = experiment: Antiproliferative activity against human DU-145 cells assessed as inhibition of cell growth incubated for 48 hrs by MTT reagent based microplate reader assay; assay type: functional; details: DU-145, 48 h
HepG2 [5] = experiment: Antiproliferative activity against human HepG2 cells assessed as inhibition of cell growth incubated for 48 hrs by MTT reagent based microplate reader assay; assay type: functional; details: HepG2, 48 h
MCF7 [6] = experiment: Antiproliferative activity against human MCF7 cells assessed as inhibition of cell growth incubated for 48 hrs by MTT reagent based microplate reader assay; assay type: functional; details: MCF7, 48 h
HepG2 [7] = experiment: Cytotoxicity against human HepG2 cells assessed as inhibition of cell growth incubated for 24 hrs by MTT reagent based microplate reader assay; assay type: functional; details: HepG2, 24 h
Hep 3B2 [8] = experiment: Cytotoxicity against human Hep3B cells assessed as inhibition of cell growth incubated for 24 hrs by MTT reagent based microplate reader assay; assay type: functional
Huh-7 [9] = experiment: Cytotoxicity against human Huh-7 cells assessed as inhibition of cell growth incubated for 24 hrs by MTT reagent based microplate reader assay; assay type: functional; details: Huh-7, 24 h
SW1353 = experiment: Antiproliferative activity against human SW1353 cells assessed as inhibition of cell growth incubated for 24 hrs by CellTiter-Glo luminescent assay; assay type: functional, cell-based; details: SW1353, 24 h
[10] = Antiproliferative activity against human CAL-78 cells assessed as inhibition of cell growth incubated for 24 hrs by CellTiter-Glo luminescent assay; assay type: functional, cell-based; details: CAL-78, 24 h
SCC-25 = experiment: Cytotoxicity against human SCC-25 cells incubated for 48 hrs by MTT reagent based spectrophotometric analysis; assay type: functional, cell-based; details: SCC-25, 48 h
MCF7 [11] = experiment: Cytotoxicity against human MCF7 cells assessed as reduction in cell growth incubated for 48 hrs by MTT assay; assay type: functional, cell-based; details: MCF7, 48 h
MCF7 [12] = experiment: Cytotoxicity against human MCF7 cells incubated for 24 hrs by MTT assay; assay type: functional, cell-based; details: MCF7, 24 h
DU-145 [13] = experiment: Cytotoxicity against human DU-145 cells assessed as reduction in cell growth incubated for 48 hrs by MTT assay; assay type: functional, cell-based; details: DU-145, 48 h
T-24 = experiment: Cytotoxicity against human T24 cells assessed as reduction in cell growth incubated for 48 hrs by MTT assay; assay type: functional, cell-based; details: T-24, 48 h
RPMI-8226 = experiment: Cytotoxicity against human RPMI-8226 cells assessed as reduction in cell viability incubated for 72 hrs by MTT assay; assay type: functional, cell-based; details: RPMI-8226, 72 h
MCF7 [14] = experiment: Cytotoxicity against human MCF7 cells assessed as reduction in cell viability incubated for 72 hrs by MTT assay; assay type: functional, cell-based; details: MCF7, 72 h
HepG2 [15] = experiment: Cytotoxicity against human HepG2 cells assessed as reduction in cell viability incubated for 72 hrs by MTT assay; assay type: functional, cell-based; details: HepG2, 72 h
U-87 MG = experiment: Cytotoxicity against human U87 cells assessed as inhibition of cell growth incubated for 72 hrs by MTT assay; assay type: functional, cell-based, U-87MG ATCC
GBM = experiment: Cytotoxicity against human GBM cells assessed as inhibition of cell growth incubated for 72 hrs by MTT assay; assay type: functional, cell-based
CCRF-CEM = experiment: Antiproliferative activity against human CCRF-CEM cells assessed as inhibition of cell growth incubated for 72 hrs by resazurin assay; assay type: functional, cell-based
ADR5000 cell line = experiment: Antiproliferative activity against human ADR5000 cell line assessed as inhibition of cell growth incubated for 72 hrs by resazurin assay; assay type: functional, cell-based; details: ADR5000, 72 h
NCI-N87 = experiment: Antiproliferative activity against human NCI-N87 cells assessed as inhibition of cell growth incubated for 24 hrs by MTT reagent based microplate reader assay; assay type: functional; details: NCI-N87, 24 h
[16] = Antiproliferative activity against human YCC-6 cells assessed as inhibition of cell growth incubated for 24 hrs by MTT reagent based microplate reader assay; assay type: functional; details: YCC-6, 24 h
[17] = Antiproliferative activity against human YCC-1 cells assessed as inhibition of cell growth incubated for 24 hrs by MTT reagent based microplate reader assay; assay type: functional; details: YCC-1, 24 h
[18] = Antiproliferative activity against human SNU-484 cells assessed as inhibition of cell growth incubated for 24 hrs by MTT reagent based microplate reader assay; assay type: functional; details: SNU-484, 24 h
AGS = experiment: Antiproliferative activity against human AGS cells assessed as inhibition of cell growth incubated for 24 hrs by MTT reagent based microplate reader assay; assay type: functional
MKN-28 = experiment: Antiproliferative activity against human MKN-28 cells assessed as inhibition of cell growth incubated for 24 hrs by MTT reagent based microplate reader assay; assay type: functional; details: MKN-28, 24 h
MKN-45 = experiment: Antiproliferative activity against human MKN-45 cells assessed as inhibition of cell growth incubated for 24 hrs by MTT reagent based microplate reader assay; assay type: functional; details: MKN-45, 24 h
Hep 3B2 [19] = experiment: Antiproliferative activity against human Hep3B cells assessed as inhibition of cell growth incubated for 24 hrs by MTT reagent based microplate reader assay; assay type: functional
[20] = Antiproliferative activity against human SNU-216 cells assessed as inhibition of cell growth incubated for 24 hrs by MTT reagent based microplate reader assay; assay type: functional; details: SNU-216, 24 h
[21] = Antiproliferative activity against human YCC-16 cells assessed as inhibition of cell growth incubated for 24 hrs by MTT reagent based microplate reader assay; assay type: functional; details: YCC-16, 24 h
Huh-7 [22] = experiment: Antiproliferative activity against human Huh-7 cells assessed as inhibition of cell growth incubated for 24 hrs by MTT reagent based microplate reader assay; assay type: functional; details: Huh-7, 24 h
HepG2 [23] = experiment: Antiproliferative activity against human HepG2 cells assessed as inhibition of cell growth incubated for 24 hrs by MTT reagent based microplate reader assay; assay type: functional; details: HepG2, 24 h
HeLa [24] = experiment: Cytotoxicity against human HeLa cells assessed as reduction in cell viability incubated for 24 hrs by MTT assay; assay type: functional, cell-based
MCF7 [25] = experiment: Cytotoxicity against human MCF7 cells assessed as reduction in cell viability incubated for 24 hrs by MTT assay; assay type: functional, cell-based; details: MCF7, 24 h
A549 [26] = experiment: Cytotoxicity against human A549 cells assessed as reduction in cell viability incubated for 24 hrs by MTT assay; assay type: functional, cell-based; details: A549, 24 h
A549 [27] = experiment: Antiproliferative activity against human A549 cells assessed as inhibition of cell growth by MTT assay; assay type: functional, cell-based

COc1ccc(OC)c2c1C(=O)C(Cl)=C(Cl)C2=O gave an IC50 (HCC1806) of 2.68 µM, an IC50 (Hs-578T) of 1.63 µM and an IC50 (MDA-MB-231) of 3.28 µM. The IC50 (MCF7 [1]) was 5.5 µM.

In the case of CCCCCCCC/C=C\CCCCCCCC(=O)Oc1cccc2c1C(=O)C=C(C)C2=O, the IC50 (HT-29) is reported as 2.9 µM, the IC50 (PC-3) is reported as 10 µM and the IC50 (HeLa [2]) is reported as 21 µM. The IC50 (A549 [3]) was 15.4 µM, the IC50 (HCT-116) was 6.5 µM and the IC50 (PANC-1) was 16.1 µM. It also gave an IC50 (DU-145 [4]) of 8.8 µM, an IC50 (HepG2 [5]) of 7.4 µM and an IC50 (MCF7 [6]) of 7.2 µM.

In the case of CCCS(=O)(=O)C12OC1C(=O)c1c(OC)ccc(OC)c1C2=O (stereo unspecified), the IC50 (HepG2 [7]) is reported as 5.26 µM, the IC50 (Hep 3B2 [8]) is reported as 3.89 µM and the IC50 (Huh-7 [9]) is reported as 7.68 µM.

With CC(C)=CC[C@@H](OC(=O)C1CC1)C1=CC(=O)c2c(O)ccc(O)c2C1=O the IC50 (SW1353) was 1.2 µM and the IC50 [10] was 2.9 µM.

In the case of CC(C)/C=C/C1=C(OCc2cn(-c3cccc(Cl)c3)nn2)C(=O)c2ccccc2C1=O, the IC50 (SCC-25) is reported as 9.81 µM.

For O=C(C1=C(Nc2ccccc2)C(=O)c2ccccc2C1=O)c1ccco1, the IC50 (MCF7 [11]) was 4.64 µM, the EC50 (MCF7 [12]) was 15 µM and the IC50 (DU-145 [13]) was 5.45 µM. For the same compound, the IC50 (T-24) was 11.7 µM.

CCOC(=O)CCCCCNC1=C(F)C(=O)c2c(F)c(F)c(F)c(F)c2C1=O gave an IC50 (RPMI-8226) of 2.8 µM, an IC50 (MCF7 [14]) of 1.4 µM and an IC50 (HepG2 [15]) of 2.1 µM.

For CC(C)=CCC1=C(NCCCCN(CCCN)Cc2ccccc2)C(=O)c2ccccc2C1=O, the IC50 (U-87 MG) was 4.3 µM and the IC50 (GBM) was 6.6 µM.

Compound CCOc1ccc(NC(=O)C2=C(SC(C)(C)C)C(=O)c3ccccc3C2=O)cc1 has an IC50 (CCRF-CEM) of 1.9 µM and an IC50 (ADR5000 cell line) of 2 µM.

COc1ccc(OC)c2c1C(=O)C=C(Sc1ccc3ccccc3c1)C2=O showed an IC50 (NCI-N87) of 1.53 µM, an IC50 [16] of 0.8 µM and an IC50 [17] of 1.3 µM. The IC50 [18] was 1.44 µM, the IC50 (AGS) was 0.42 µM and the IC50 (MKN-28) was 1.2 µM. For the same compound, the IC50 (MKN-45) was 0.82 µM, the IC50 (Hep 3B2 [19]) was 0.9 µM and the IC50 [20] was 0.89 µM. It also gave an IC50 [21] of 1.58 µM, an IC50 (Huh-7 [22]) of 2.84 µM and an IC50 (HepG2 [23]) of 0.87 µM.

Compound O=C(Nc1ccc(S(=O)(=O)c2ccc(NC3=C(Sc4ccccc4)C(=O)c4ccccc4C3=O)cc2)cc1)c1cc(Cl)cc(Cl)c1 has an IC50 (HeLa [24]) of 1.17 µM, an IC50 (MCF7 [25]) of 0.05 µM and an IC50 (A549 [26]) of 1.98 µM.

For CC(=O)NCC1=C(Nc2ccc(O)c(C)c2)C(=O)c2ccccc2C1=O, the IC50 (A549 [27]) was 3 µg/mL (≈ 8.56 µM).
